This experiment deals with T1, 5-lipoxygenase (isolated human leukocytes) (Homo sapiens, UniProt P09917).
T1 construct: 5-Lipoxygenase Assay Using Isolated Human Leukocytes (5LOA2); endogenous in cells; host or cells: isolated human blood leukocytes, platelets removed
T1 sequence (P09917 1-674): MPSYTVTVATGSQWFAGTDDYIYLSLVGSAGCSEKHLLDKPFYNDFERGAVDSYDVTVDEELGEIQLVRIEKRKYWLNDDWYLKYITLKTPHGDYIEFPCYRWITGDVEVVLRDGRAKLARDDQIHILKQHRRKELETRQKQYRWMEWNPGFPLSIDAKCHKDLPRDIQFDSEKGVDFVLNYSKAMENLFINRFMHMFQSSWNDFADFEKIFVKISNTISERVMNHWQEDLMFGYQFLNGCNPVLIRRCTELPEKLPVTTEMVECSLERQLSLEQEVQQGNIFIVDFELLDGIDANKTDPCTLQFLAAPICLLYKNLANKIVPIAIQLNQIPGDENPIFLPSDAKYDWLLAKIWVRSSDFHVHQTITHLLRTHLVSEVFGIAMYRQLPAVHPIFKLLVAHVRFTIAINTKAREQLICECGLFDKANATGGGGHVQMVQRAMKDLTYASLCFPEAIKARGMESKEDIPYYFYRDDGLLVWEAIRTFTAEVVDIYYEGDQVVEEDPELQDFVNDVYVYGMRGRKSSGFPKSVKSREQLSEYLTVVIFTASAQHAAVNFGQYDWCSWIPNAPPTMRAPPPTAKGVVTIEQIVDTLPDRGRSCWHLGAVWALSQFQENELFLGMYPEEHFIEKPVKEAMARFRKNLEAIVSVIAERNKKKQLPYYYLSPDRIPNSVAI
Description: 5-Lipoxygenase Assay Using Isolated Human Leukocytes (5LOA2). It counts as cell-based. The protocol:
5-Lipoxygenase Assay Using Isolated Human Leukocytes (5LOA2)
The formation of 5-HETE in human leukocytes is considered a measure of 5-lipoxygenase activity. The protocol is described in the following.
Fresh heparinized or EDTA treated human blood is mixed with 6% dextran-3% dextrose in isotonic saline in the ratio 0.25 ml dextran solution per 1.0 ml blood. After mixing the blood is allowed to sit at room temperature for about 90 minutes while the RBC's settle. During this period, the plasma is removed with a plastic pipette to nalgens tubes.
The plasma is centrifuged at 800 rpm ([…]) on the Beckman Td-b refrigerated centrifuge to remove the platelets (which remain in the supernatant). The pellet, consisting of leukocytes and erythrocytes, is treated with 10 ml 0.87% ammonium chloride at room temperature for four minutes, lysing the red cells. At the end of four minutes the cells are diluted with a 2×volume of phosphate buffered saline, pH 7.4, and centrifuged for ten minutes. The cells are washed three times with the phosphate buffered saline. Any of the pelleted cell matter which is not easily resuspended is discarded during the washings --the material contains platelets (12-lipoxygenase activity).
After washing, the cells are resuspended in phosphate buffered saline containing 1.0 mM calcium and 0.5 mM magnesium. After counting the cells are diluted to 1.5-2.0×10^7 leukocytes per milliliter.
To each polypropylene reaction tube is added 0.48 ml leukocytes in Ca-Mg phosphate buffered saline, pH 7.4; 1-5 μl test compound dissolved in DMSO and buffer; or DMSO for control tubes.
The tubes preincubate at 37° C. for five minutes. […]
A portion of the ethanol solution is injected into the HPLC system for 5-HETE quantitation.
The HPLC system consists of Hewlett-Packard 1040A UV spectrophotometry system with an HP85 computer. […] Peaks are measured with a Hewlett Packard 3360A integrator. […] The flow is monitored at 235 nm for 5-HETE quatitation. […]

On to `O=C(Nc1ccc(CCc2ccc(Cl)c(Cl)c2)cc1)c1ccccc1O` [Example 42], for which the “% Inhibition (5LOA2)” value (5LOA2, 2.00 E -5 M) is given as 30.9% and the “% Inhibition (5LOA2)” value (5LOA2, 5.00 E -6 M) was determined as 21.1%.

For the origin of these results see US4939133A, “N-substituted-2-hydroxy-α-oxo-benzeneacetamides and pharmaceutical compositions having activity as modulators of the arachidonic acid cascade” (Warner-Lambert Company, priority 1985, dated 1990).
